Experimental data published in patent US20180370918A1, “SORAFENIB HEMI-P-TOSYLATE MONOHYDRATE CRYSTAL AND PREPARATION PROCESS THEREOF” (CHIA TAI TIANQING PHARMACEUTICAL GROUP CO., LTD., priority 2015, published 2018).

Experiments:
[1] = Stability test (Chinese Pharmacopoeia 2010, Guideline for Stability Test of Bulk Drug), purity by HPLC; format: physicochemical
Description: Chromatographic column: Agilent peptide map chromatographic column (3.0×150 mm, 2.7 μm)
Mobile phase A: phosphate buffer solution (monopotassium phosphate (0.79 g) was weighted and dissolved in water, then diluted to 1000 ml, and further adjusted to pH=2.4 with phosphoric acid)
Mobile phase B: ethanol-acetonitrile (40:60)
Detection wavelength: 235 nm for detection
Column temperature: 55° C.
Solvent: mobile phase A-mobile phase B (1:3)
Preparation of a solution of a test sample: an appropriate amount of the test sample was weighted and dissolved in the solvent [mobile phase A-mobile phase B (1:3)], then diluted to a solution which comprises about 0.16 mg of sorafenib per 1 ml as the solution of the test sample.
The stability test for the sorafenib hemi-p-tosylate monohydrate crystal of the present invention was conducted according to the Chinese Pharmacopoeia (2010), Part 11, Appendix XIX C: Guideline for Stability Test of Bulk Drug and Pharmaceutical Preparation.

[2] = Hygroscopicity test (Chinese Pharmacopoeia 2010, Guideline for Hygroscopicity Test of Drug); format: physicochemical
Description: The hygroscopicity test for the sorafenib hemi-p-tosylate monohydrate crystal of the present invention was conducted according to the Chinese Pharmacopoeia (2010), Part II, Appendix XIX J: Guideline for Hygroscopicity Test of Drug.

SMILES: CNC(=O)c1cc(Oc2ccc(NC(=O)Nc3ccc(Cl)c(C(F)(F)F)c3)cc2)ccn1 [sorafenib hemi-p-tosylate monohydrate]
- Purity ([1]; Day 0): 99.96%
- Purity ([1]; Exposure test to light (luminance: 6000 Lux), standing for 10 days): 99.97%
- Purity ([1]; Shading test (luminance: 6000 Lux), standing for 10 days): 99.96%
- Purity ([1]; Standing for 6 months at 25° C. ± 2° C. and humidity of 60% ± 5%): 99.96%
- Purity ([1]; Standing for 10 days at 25° C. and humidity of 92.5% ± 5%): 99.96%
- Purity ([1]; Standing for 10 days at 40° C.): 99.96%
- Purity ([1]; Standing for 10 days at 60° C.): 99.95%
- Stability (conclusion in words) ([1]; results of Table 4): highly stable
- Hygroscopic weight grain (%) [2]: 0.07%
